The target in series [1] is T1, purified recombinant rat FAAH (Rattus norvegicus, UniProt P97612).
T1 sequence (P97612 30-579 limits assumed): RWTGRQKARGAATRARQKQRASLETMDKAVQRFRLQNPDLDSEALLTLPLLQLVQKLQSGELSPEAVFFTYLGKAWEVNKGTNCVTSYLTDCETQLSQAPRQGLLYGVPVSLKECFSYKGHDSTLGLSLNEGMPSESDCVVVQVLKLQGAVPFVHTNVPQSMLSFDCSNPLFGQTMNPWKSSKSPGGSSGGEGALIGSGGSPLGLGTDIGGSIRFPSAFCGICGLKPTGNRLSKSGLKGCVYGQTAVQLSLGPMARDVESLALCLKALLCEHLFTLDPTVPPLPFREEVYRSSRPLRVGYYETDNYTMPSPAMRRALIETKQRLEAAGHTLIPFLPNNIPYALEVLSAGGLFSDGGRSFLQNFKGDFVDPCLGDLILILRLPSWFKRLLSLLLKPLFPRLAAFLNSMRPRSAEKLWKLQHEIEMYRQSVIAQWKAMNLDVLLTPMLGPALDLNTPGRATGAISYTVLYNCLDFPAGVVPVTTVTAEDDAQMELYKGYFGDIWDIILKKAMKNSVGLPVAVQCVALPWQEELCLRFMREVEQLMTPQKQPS
Briefly: FAAH inhibition assay, 14C-oleamide hydrolysis, Dixon plot. The format is biochemical. Particulars: for FAAH inhibition (in words): pH 9 assay conditions.

For series [2], the system named is cannabinoid (CB2) receptor. Particulars: cited from earlier work.
For series [3], the system named is formalin test of noxious chemical pain. The following applies: 1st and 2nd phase; 10–20 mg/kg, i.p.; cited from earlier work.
Series [4] deals with spinal nerve ligation (SNL) model of neuropathic pain. Particulars: 10–20 mg/kg, i.p.; cited from earlier work.
The target in series [5] is T1, purified recombinant rat FAAH. Particulars: cited from earlier work.
The next series concerns P450 3A4. The following applies: cited from earlier work.
The conditions of series [6]: Cerep assay profiling; cited from earlier work.
In series [7] the test system is human ether-a-go-go related gene (hERG). Particulars: cited from earlier work.
The test system of a further series is FAAH knockout mice. Particulars: cited from earlier work.
The next series relates to P450 2D6. Particulars: cited from earlier work.
The subject of the next series is hot plate assay. The following applies: 10–20 mg/kg, i.p.; cited from earlier work.
In series [8] the test system is vanilloid (TRP) receptors. Particulars: cited from earlier work.
Series [9] deals with endogenous anandamide levels. Particulars: cited from earlier work.
Series [10] relates to cannabinoid (CB1) receptor. The following applies: cited from earlier work.
Another series relates to P450 2C9. The following applies: cited from earlier work.
In a further series the test system is tail flick assay. Particulars: 10–20 mg/kg, i.p.; cited from earlier work.
In series [11] the test system is mild thermal injury (MTI) model of peripheral pain. The following applies: 10–20 mg/kg, i.p.; cited from earlier work.

`Cn1nnc(C(=O)CCCCCCc2ccccc2)n1` [19a]: the “FAAH inhibition (in words)” value in [1] was “displayed FAAH inhibition at levels consistent with this series”.

On to `Cn1nnnc1C(=O)CCCCCCc1ccccc1` [19b], for which the “FAAH inhibition (in words)” value in series [1] is recorded as “displayed FAAH inhibition at levels consistent with this series”.

In the case of `O=C(CCCCCCc1ccccc1)c1ncc(-c2ccccn2)o1` [compound 2], the CB2 receptor binding result in series [2] is recorded as “does not bind”. In addition, the “analgesic activity, formalin test” value in series [3] is “analgesic activity”. Further, in series [4], the “analgesic activity, SNL model” value is “analgesic activity”. For the same compound, the “mode of inhibition (Lineweaver–Burk analysis)” value in series [5] is on record as “reversible, competitive inhibition”. In addition, the “inhibition of P450 3A4” value in the series on P450 3A4 is on record as “does not significantly inhibit”. In addition, the offsite target activity result in [6] is on record as “lack significant offsite target activity”. For the same compound, the “inhibition of hERG” value in [7] was “does not significantly inhibit”. Further, the “analgesia in FAAH knockout mice” value in the series with FAAH knockout mice is “ineffective at promoting analgesia”. In the series on P450 2D6, the “inhibition of P450 2D6” value is listed as “does not significantly inhibit”. Moreover, the “analgesic activity, hot plate assay” value with hot plate assay is given as “analgesic activity”. For the same compound, the “vanilloid (TRP) receptor binding” value in series [8] is on record as “does not bind”. The endogenous anandamide levels result in [9] is on record as “increases endogenous anandamide levels”. Moreover, the CB1 receptor binding entry in series [10] was “does not bind”. Moreover, the “inhibition of P450 2C9” value with P450 2C9 is “does not significantly inhibit”. In addition, in the series with tail flick assay, the “analgesic activity, tail flick assay” value was “analgesic activity”. The “analgesic activity, MTI model” value in [11] is on record as “analgesic activity”.

As for `O=C(CCCCCCc1ccccc1)c1cnc(-c2ccccn2)o1` [compound 6], the “loss of FAAH inhibition” value in series [1] (oxazole isomer, location of the oxazole nitrogen atom switched, compared with 2) was over 4000 fold.

The record behind these values is PMC2556205 (Journal of medicinal chemistry, 2008).
